Measured values as given in patent US20080187492A1, “Drosophila Models For Diseases Affecting Learning and Memory” (priority 2004, published 2008).

How the values were obtained:
Assay type in all cases: in vivo, Drosophila melanogaster
[1] = system: Rescue (dFMR1-3+wild type rescue fragment) flies; assay: Quality of naive courtship (progress to later courtship steps), Rescue flies; conditions: 5 day old
Experimental: In order to determine if MPEP can get into the Drosophila central nervous system (CNS) through feeding behavior, we mixed MPEP into the food at a concentration of 1,000 μg/ml (433.0 μM). Males were raised on CT food and then placed on either CT or M food. Naive males were placed in the training chamber for one hour with no female, and then placed with a virgin target female for a ten-minute interval. The naive courtship behavior was reduced by high MPEP concentration in Rescue (p<0.0001) and FS (p<0.0005) lines, and it was depressed to similar levels by high MPEP treatment in the Rescue and FS groups (FIG. 2A). […] FIG. 2B dissects the steps involved in naive courtship behavior. […] Lowering the dose of MPEP and examining naive courtship. We next decided to try a lower dose of MPEP to 200 μg/ml (86.6 μM) mixed into the food of the Drosophila. In these experiments flies were placed on either CT or M food in the larval stage and then placed on either CT of M food within four hours of eclosion. […] Therefore giving this drug in adulthood only is effective in enhancing naive courtship behavior. […] Further analysis of the quality of courtship that was performed by naive males was assessed by binning the number of males to advance to a particular phase of courtship for each genotype and pharmacologic treatment (FIG. 3B).

[2] = system: FS (dFMR1-3+frame shifted rescue fragment) flies; assay: Conditioned courtship: learning during training, FS flies; conditions: MPEP 200 μg/ml in development, adulthood or both
Excerpt: The role of dFMR1 in learning during training and immediate recall. The flies used were w1118 (the background stock from which the mutation was derived), dFMR1-3 (the mutation lacking dFMR1 expression), Rescue (dFMR1-3+wild type rescue fragment) and FS (frame shift, dFMR1-3+frame shifted rescue fragment) all from Dockendorff et al, 2002. To assess learning during training male flies are placed in a training chamber with a previously mated female for one hour. The amount of time the male spent courting in the initial ten-minute interval was compared to the amount of time the male spent courting the female target in the final ten-minute interval (FIG. 1). […] It is important to note that the level of courtship behavior towards the previously mated female is similar between the two mutant groups and the w1118 and Rescue groups. […] This is important to note, because without actively courting, the male fly cannot be trained (Tompkins et al. 1982; 1983).
Learning during training. In order to assess learning during training, the male flies were placed in a training chamber with a previously mated female for one hour. The amount of time the male spent courting in the first ten-minute interval was compared to the amount of time the male spent courting the female target in the last ten-minute interval (FIG. 4A).
Behavioral Training and Testing. […]

[3] = system: Rescue (dFMR1-3+wild type rescue fragment) flies; assay: Naive courtship behavior (courtship index toward virgin female), Rescue flies; conditions: 20-day-old
[4] = system: Rescue (dFMR1-3+wild type rescue fragment) flies; assay: Conditioned courtship: immediate recall (0 minute memory), Rescue flies
Experimental: To assess immediate recall (0 minute memory), after the one hour training session with a previously mated female, the male was placed with a virgin target female for a ten-minute interval. This CI was then compared to the courtship level of naive males that had been placed in the training chamber for one hour with no female, before introducing them to a virgin target female for a ten-minute interval. In FIG. 1B the w1118 and Rescue lines show depression of courtship activity after training compared to naive trained males (p<0.005). However, dFMR1-3 and FS mutant lines court just as vigorously after training with a previously mated female as naive trained males, therefore these flies display no experience dependent behavioral plasticity at the time point of immediate recall. This is in spite of the fact that they court to similar levels as w1118 and Rescue lines during the training period. This implicates a deficit in synaptic plasticity for the two mutant lines at immediate recall (0 minute memory). This robust deficit in behavioral plasticity is a critical extension of the previous models of Fragile X syndrome in model organisms, since this has been completely missing in Drosophila models and is subtle in murine models, and particularly since this may be one of the most devastating aspects of the human disease.
Immediate recall. […]

## Cc1cccc(C#Cc2ccccc2)n1 [MPEP, 2-methyl-6-(phenylethynyl)pyridine]
[1]; MPEP 200 μg/ml in adulthood only (CT-M)
  quality of naive courtship: progressed to later phases of courtship to similar levels as all other groups
[1]; MPEP 1,000 μg/ml in adulthood, relative to CT-CT Rescue
  steps involved in naive courtship behavior: failed to progress to later steps in courtship behavior
[2]; 20-day-old
  learning during training: able to restore learning during training
[2]; 5 day old
  learning during training: does not adversely affect learning during training
[3]; MPEP (86.6 μM) in adulthood only (CT-M)
  naive courtship activity: depressed relative to CT-CT Rescue flies
[3]; MPEP (86.6 μM) in development then M or CT food as adults
  naive courtship activity: courted as vigorously as CT-CT Rescues flies
[4]; 20-day-old, MPEP in development or adulthood or both
  immediate recall: does not adversely affect immediate recall
[4]; 5 day old, MPEP 200 μg/ml in development or adulthood or both
  immediate recall: does not adversely affect immediate recall
